Test: Human HepG2 cell viability assay in 384 well format
Type: toxicity, cell-based
Design: dose 125 nL, time 70.5 hour; concentration not given beside the values
Conditions: HepG2 cells, read-out: Inhibition

| SMILES | cytotoxicity at 70.5 h |
| --- | --- |
| CN1CCCC(Cc2cncc(C(=O)N3CCOCC3)c2)C1 (stereo not drawn) | 12.9% |
| Cc1ccc(S(=O)(=O)N2CCC(c3n[nH]cc3C)C2)cc1 (stereo not drawn) | -1.04% |
| COc1ccc(CN2CCC(c3nccnc3-n3ccnc3)CC2)cc1 | -5.25% |
| OCCN1CCCC(c2nccnc2Oc2ccccc2)C1 (stereo not drawn) | -6.87% |
| CN(C)C(=O)CN1CCCC1c1nc(N)ncc1-c1ccc(F)cc1 (stereo not drawn) | 2.44% |
| CC(C)CC(NC(=O)CSCC(N)=O)c1cccs1 (stereo not drawn) | -5.44% |
| COc1ccccc1CC1CCCN1C(=O)c1cn[nH]c1C (stereo not drawn) | -4.05% |
| CN(C(=O)OC(C)(C)C)C1CCN(C(=O)c2cc(Cl)c[nH]2)C1 (stereo not drawn) | 13% |
| O=C(c1cnc(-c2ccccc2)nc1)N1CCOC2(CCCC2)C1 | -8.9% |
| CNC(=O)CN(C)S(=O)(=O)c1c(Br)cc2[nH]c(=O)oc2c1Cl | -3.9% |
| Cc1nn(C)c2ncc(NC(=O)N(C)Cc3cc(Cl)cn3C)cc12 | -4.9% |
| NC(=O)N1CCCN(CCCSCc2ccccc2)CC1 | -17.6% |
| FC(F)Oc1ccc(CNCc2cc(Br)c3c(c2)OCO3)cc1 | -6.89% |
| CCN(CC1CCOC1)S(=O)(=O)Cc1cc(Cl)ccc1OC (stereo not drawn) | -14.8% |
| CC(=O)N1CCCN(CCCc2ccccc2)CC1 | -6.32% |
| CC(C)c1nnc2n1CCN(Cc1ccc3c(c1)OCCO3)C2 | 0.93% |
| CCC(C)NC(=O)c1sccc1-n1cnnn1 (stereo not drawn) | 27.2% |
| CC(C)OCCCNC(=O)CN1CCN(c2nccs2)CC1 | -4.41% |
| Cc1cnn(C2CN(c3ccccc3S(=O)(=O)C(F)(F)F)C2)c1 | 1.3% |
| Cn1nc(C(=O)NCc2ccc(OC3CCCCC3)nc2)ccc1=O | 21.9% |
| COc1ccc2c(c1)OCC(CNC1CCc3ncnn3C1)=C2 (stereo not drawn) | -0.263% |
| CC(c1ccc(F)cc1F)N1CCN(CCC(=O)NC(N)=O)CC1 (stereo not drawn) | -6.26% |
| CC(c1ccc(F)cc1F)N1CCN(CCN2CCCC2=O)CC1 (stereo not drawn) | -4.44% |
| CC(c1nc(C2CC2)no1)N1CCc2c(ncn2C2CC2)C1 (stereo not drawn) | -7.1% |

| SMILES | cytotoxicity at 70.5 h |
| --- | --- |
| Cc1ccc(C(=O)NCc2cc(F)ccc2N2CCCN(C)CC2)o1 | 1.17% |
| CCc1nnc(CS(=O)(=O)c2ccc(C)c(C)c2)n1C | 26.2% |
| CC(OCC1CC1)C(=O)Nc1cccc(C(=O)Nc2ccccn2)c1 (stereo not drawn) | -8.38% |
| Cc1cc(C)n(CCN2CCC(N(C)Cc3nnc(C)n3C)C2)n1 (stereo not drawn) | -0.44% |
| CC1CN(CC(=O)NCc2ccc(F)cc2)CCN1c1nccs1 (stereo not drawn) | 0.122% |
| CN1CCCN(c2ccc(F)cc2CNC(=O)c2ccsc2)CC1 | -4.69% |
| COc1cc(NC(=O)N(C)CCC2CC2)ncn1 | 19.9% |
| Cc1nncn1CCNC(=O)C1SCCc2sccc21 (stereo not drawn) | -3.34% |
| Cc1cnn(CCNCc2cc(=O)n3cc(Cl)ccc3n2)c1 | -6.7% |
| Cc1cnn(CC(C)NCc2cc(=O)n3ccccc3n2)c1 (stereo not drawn) | -11.2% |
| Cc1ccc(NC(=O)c2cccc(N(C)C)c2)nc1 | -8.66% |
| CC(C)(NCc1cccc(C(N)=O)c1)c1ccc2c(c1)OCO2 | -10% |
| CC(C)(NCc1cccc(O)c1)c1ccc2c(c1)OCO2 | -11.8% |
| CC(C)(NCc1cccc(C#N)c1)c1ccc2c(c1)OCO2 | -9.81% |
| NC1(c2nc(-c3cccs3)cc(=O)[nH]2)CCCCC1 | 7.44% |
| NC1(c2nc(-c3ccccc3)cc(=O)[nH]2)CCCC1 | 13.8% |
| Cc1ncncc1C(=O)N1CCCN(Cc2nccn2C(C)C)CC1 | -8.96% |
| O=C(NCCO)Nc1c(F)cccc1Oc1ccccc1 | -7.66% |
| CCc1ncc2c(n1)CN(CC(=O)NC1CCCCNC1=O)CC2 (stereo not drawn) | 1.9% |
| COCCN(C(=O)c1cc(C)no1)c1ccc(C#N)cc1 | -8.51% |
| Cn1c(C2CC2)nc2c1CCN(CC(=O)NC1CCCCNC1=O)C2 (stereo not drawn) | -7.85% |
| CN(C)CCN(C)S(=O)(=O)Cc1ccc(Br)cc1 | 11.7% |
| CN1CCC(N(Cc2ccccc2)C(=O)c2ccn3cncc3c2)CC1 | 3.64% |
| COc1ccc(C(=O)NC2COc3ccccc3C2)cc1OCC(=O)O (stereo not drawn) | -4.51% |

| SMILES | cytotoxicity at 70.5 h |
| --- | --- |
| CC(C)(C)OC(=O)N1CCCN(Cc2ccon2)c2ccccc21 | 9.4% |
| COCCN1CCN(CC(=O)NC2(C#N)CCCC2)CC1 | -8.93% |
| CCC1CN(CC(=O)NC2(C#N)CCCC2)CCN1CCOC (stereo not drawn) | -6.19% |
| COCCN1CCN(CC(=O)NC2(C#N)CCCC2)CC1C (stereo not drawn) | 7.99% |
| CN1CCC(N(Cc2ccccc2)C(=O)c2nccn3ccnc23)CC1 | -7.08% |
| CCN(CC)CCn1cc(NC(=O)Nc2ccccc2OC)cn1 | -11.6% |
| CCc1noc(C(C)N2CCC(NS(=O)(=O)c3ccccc3)CC2)n1 (stereo not drawn) | 19.7% |
| O=C(NCC1CCCN1Cc1ccccc1)NCC1(O)CCC1 (stereo not drawn) | 31.1% |
| CC(=O)NCC1CCN(Cc2nc(C3CC3)no2)CC1 | -6.87% |
| CC(C)Oc1ccc(CNC(=O)C2CCC(=O)N2)cn1 (stereo not drawn) | 23% |
| CCCC(=O)NCc1ccc(N2CCCCC2)cc1 | -10.2% |
| CC(CNC(=O)c1nnn(-c2ccccc2)c1C(F)(F)F)N(C)C (stereo not drawn) | -8.59% |
| Cc1nnc2n1CCN(CC(=O)NC(C)c1cccc3ccccc13)C2 (stereo not drawn) | 2.87% |
| Cn1c(=O)[nH]c2cc(C(=O)OCC(F)F)ccc21 | 19.9% |
| CNC(=O)NC(=O)CN1CCN(CC2CC2)c2ccccc21 | 1.66% |
| O=C(NC1CCS(=O)(=O)c2ccccc21)c1sccc1C1CC1 (stereo not drawn) | -7.25% |
| O=C(NCc1nncn1C1CC1)C1(c2ccc(F)cc2)CCOCC1 | 16.9% |
| CCCc1nc(CN(C)CCOc2ccccc2)cs1 | -8.59% |
| Cc1cc(CNCC2CCCN(C(=O)OC(C)(C)C)C2)no1 (stereo not drawn) | -6.15% |
| O[C@H]1Cc2ccccc2[C@H]1Nc1ncccc1C(F)(F)F | -4.3% |
| Cc1cc(C(=O)NCC2CCCC2)c(C)n1-c1cccnc1 | -6.04% |
| CC(c1ncc(C(C)(C)C)o1)N1CCN(Cc2ccc(Cl)s2)CC1 (stereo not drawn) | 16.2% |
| CCOc1ccnc(N2CCCN(c3nc(C4CC4)ns3)CC2)n1 | 4.37% |
| Cc1nn(C)c(C)c1C1CCCN1CCCC#N (stereo not drawn) | -4.71% |

| SMILES | cytotoxicity at 70.5 h |
| --- | --- |
| Cc1nn(C)c(C)c1C1CCCN1CCOc1cccc(C#N)c1 (stereo not drawn) | -3.95% |
| CCOCCN1CCN(CCC(=O)N2CCCCC2)CC1C (stereo not drawn) | -0.119% |
| COC(=O)C(C)(C)NC(=O)c1cc2sc(N(C)C)nc2s1 | -13.9% |
| Cc1csc(CNC(=O)NC2CCCN(S(C)(=O)=O)C2)n1 (stereo not drawn) | -12.3% |
| c1csc(-c2cc(CN3CCN(c4cnccn4)CC3)no2)c1 | -14.8% |
| CCc1noc(C(C)N2CCN(c3ncnc4sccc34)CC2)n1 (stereo not drawn) | 1.35% |
| CC(NCc1ccc(OCC(N)=O)cc1)c1ccc2c(c1)CCCC2 (stereo not drawn) | -4.04% |
| CN(C)c1cc2c(nn1)CCN(C(=O)c1cc3c(s1)CCC3)C2 | 8.88% |
| Cn1cc(C(=O)N2CCCN(c3cccnn3)CC2)c2ccccc21 | -0.532% |
| CCNc1cc2c(nn1)CCN(C(=O)C1Cc3ccccc3S1)C2 (stereo not drawn) | -6.84% |
| CCNc1cc2c(nn1)CCN(C(=O)c1cc3c(s1)CCOC3)C2 | -9.07% |
| COc1cc(OC)cc(N2CCC(NC(=O)c3cccn3C)CC2)c1 | -13.4% |
| COCCN1CCC(CNC(=O)Nc2ccc(-c3ccccc3)cc2)C1 (stereo not drawn) | 1.85% |
| CCOCCN1CCN(CC(=O)N2CCCC2)CC1C (stereo not drawn) | -7.94% |
| CC(CNC(=O)c1ccc(C#N)cc1)N1CCc2ccccc21 (stereo not drawn) | 0.334% |
| Cc1ccc(N2CCCN(C(=O)c3cn(C)c4ccccc34)CC2)nn1 | -7.87% |
| COCCNC1(c2ccc(Cl)cc2)CCOCC1 | 11% |
| CCN(CC1CCOC1)C(=O)NCc1ccc(-n2cncn2)nc1 (stereo not drawn) | -1.6% |
| Cc1ccc(C(=O)N(Cc2cccc(F)c2)C2CC2)c(=O)[nH]1 | -2.11% |
| Cc1ccc(C(=O)N(Cc2ccc(F)cc2F)C2CC2)c(=O)[nH]1 | -2.76% |
| CN(CCCNC(=O)c1cccc(OCC(N)=O)c1)CC(F)(F)F | 0.403% |
| CN1N=C(C(=O)N2CCCN(c3ncccc3C#N)CC2)CCC1=O | 3.72% |
| CCn1ccnc1CN1CCN(c2ncnc3ccsc23)CC1 | -3.44% |
| CCn1ccnc1CN1CCN(c2ncnc3ccccc23)CC1 | -2.5% |

| SMILES | cytotoxicity at 70.5 h |
| --- | --- |
| Cn1ccnc1CN1CCN(c2ncnc3ccsc23)CC1 | -0.211% |
| Cc1cc(CNC(=O)N2CCc3ccccc32)on1 | -1.25% |
| CN1N=C(C(=O)N2CCN(c3ncccc3Cl)CC2)CCC1=O | 12% |
| Cn1cc(N2CCCC(Nc3ccc4c(c3)NC(=O)CC4)C2=O)cn1 (stereo not drawn) | -1.14% |
| O=C(c1ccc(NCc2ccco2)nc1)N1CCc2ccccc21 | -3.94% |
| Cn1cc(N2CCCC(Nc3ccc4c(c3)CCC(=O)N4)C2=O)cn1 (stereo not drawn) | 0.589% |
| Cc1noc(C)c1CCCNC(=O)C1CCCN(C(=O)C2CC2)C1 (stereo not drawn) | -0.841% |
| COCCC(=O)N1CCC(Nc2ncc(Br)cn2)CC1 | -0.761% |
| CC(C)OCCNC1(c2ccc(Cl)cc2)CCOCC1 | -0.58% |
| CC(c1cccnc1)N1CCN(C(=O)NCc2cnn(C)c2)CC1 (stereo not drawn) | -1.81% |
| CC(C)CNC(=O)COc1cccc[n+]1[O-] | 0.267% |
| COCc1ccccc1C(=O)NCC(c1c(F)cccc1F)N(C)C (stereo not drawn) | 0.326% |
| COC1CCN(CCNC(=O)NCC(C)c2cccc(C)c2)CC1 (stereo not drawn) | 9.93% |
| COc1ccc2c(c1)CCCN2C(=O)CN1CCOC(C)C1 (stereo not drawn) | 0.691% |
| CN(CCCNC(=O)c1ccccc1F)CC(F)(F)F | -2.12% |
| COCC(=O)N1CCN(C(=O)C2(c3ccc(C)c(OC)c3)CC2)CC1 | -2.36% |
| O=C(Cc1csc(Cc2ccccn2)n1)NCCCN1CCCC1=O | 32.1% |
| N#Cc1c(F)cccc1Nc1cnn(CC(=O)N2CCOCC2)c1 | 39.8% |
| Cc1ccccc1CN(C)C(C(N)=O)c1ccccc1 (stereo not drawn) | -16.6% |
| Cc1ccc(-c2n[nH]cc2CNCC2CCN(CC(F)(F)F)C2)o1 (stereo not drawn) | -1.74% |
| CC(NCc1ccc(OCC(N)=O)cc1)c1ccc(Cl)cc1Cl (stereo not drawn) | -5.48% |
| Cc1ccc(CN[C@@H]2COC[C@H]2Cc2cc(C)no2)cc1 | -7.63% |

From ChEMBL document CHEMBL3507680, “University of Dundee, Gates Library screen for HepG2 cell viability”
